Reference: PMC10838953

Tests used:
TNNI3K = TNNI3K (Homo sapiens, UniProt Q59H18); assay: biochemical; conditions: read-out: %Ctrl @ 2000nM
MCF10A cells = conditions: high concentrations
[1] = target: RSK2(Kin.Dom.1-N-terminal) (Homo sapiens, UniProt P51812); assay: biochemical; conditions: read-out: %Ctrl @ 2000nM
ANKK1 = ANKK1 (Homo sapiens, UniProt Q8NFD2); assay: biochemical; conditions: read-out: %Ctrl @ 2000nM
CHEK1 = CHEK1 (Homo sapiens, UniProt O14757); assay: biochemical; conditions: read-out: %Ctrl @ 2000nM
FLT3(R834Q) = FLT3(R834Q) (Homo sapiens, UniProt P36888, R834Q); assay: biochemical; conditions: read-out: %Ctrl @ 2000nM
HPK1 = HPK1 (Homo sapiens, UniProt Q92918); assay: biochemical; conditions: read-out: %Ctrl @ 2000nM
CSF1R-autoinhibited = CSF1R-autoinhibited (Homo sapiens, UniProt P07333); assay: biochemical; conditions: read-out: %Ctrl @ 2000nM
FLT1 = FLT1 (Homo sapiens, UniProt P17948); assay: biochemical; conditions: read-out: %Ctrl @ 2000nM
MAPKAPK2 = MAPKAPK2 (Homo sapiens, UniProt P49137); assay: biochemical; conditions: read-out: %Ctrl @ 2000nM
EGFR(G719C) = EGFR(G719C) (Homo sapiens, UniProt P00533, G719C); assay: biochemical; conditions: read-out: %Ctrl @ 2000nM
CLK1 = CLK1 (Homo sapiens, UniProt P49759); assay: biochemical; conditions: read-out: %Ctrl @ 2000nM
PAK1 = PAK1 (Homo sapiens, UniProt Q13153); assay: biochemical; conditions: read-out: %Ctrl @ 2000nM
AMPK-alpha2 = AMPK-alpha2 (Homo sapiens, UniProt P54646); assay: biochemical; conditions: read-out: %Ctrl @ 2000nM
FER = FER (Homo sapiens, UniProt P16591); assay: biochemical; conditions: read-out: %Ctrl @ 2000nM
SRC = SRC (Homo sapiens, UniProt P12931); assay: biochemical; conditions: read-out: %Ctrl @ 2000nM
PLK2 = PLK2 (Homo sapiens, UniProt Q9NYY3); assay: biochemical; conditions: read-out: %Ctrl @ 2000nM
HIPK3 = HIPK3 (Homo sapiens, UniProt Q9H422); assay: biochemical; conditions: read-out: %Ctrl @ 2000nM
CDK8 = CDK8 (Homo sapiens, UniProt P49336); assay: biochemical; conditions: read-out: %Ctrl @ 2000nM
FES = FES (Homo sapiens, UniProt P07332); assay: biochemical; conditions: read-out: %Ctrl @ 2000nM
WNK1 = WNK1 (Homo sapiens, UniProt Q9H4A3); assay: biochemical; conditions: read-out: %Ctrl @ 2000nM
PRKG2 = PRKG2 (Homo sapiens, UniProt Q13237); assay: biochemical; conditions: read-out: %Ctrl @ 2000nM
TNK2 = TNK2 (Homo sapiens, UniProt Q07912); assay: biochemical; conditions: read-out: %Ctrl @ 2000nM
INSRR = INSRR (Homo sapiens, UniProt P14616); assay: biochemical; conditions: read-out: %Ctrl @ 2000nM
PCTK1 = PCTK1 (Homo sapiens, UniProt Q00536); assay: biochemical; conditions: read-out: %Ctrl @ 2000nM
PCTK1, sequence (Q00536 whole entry): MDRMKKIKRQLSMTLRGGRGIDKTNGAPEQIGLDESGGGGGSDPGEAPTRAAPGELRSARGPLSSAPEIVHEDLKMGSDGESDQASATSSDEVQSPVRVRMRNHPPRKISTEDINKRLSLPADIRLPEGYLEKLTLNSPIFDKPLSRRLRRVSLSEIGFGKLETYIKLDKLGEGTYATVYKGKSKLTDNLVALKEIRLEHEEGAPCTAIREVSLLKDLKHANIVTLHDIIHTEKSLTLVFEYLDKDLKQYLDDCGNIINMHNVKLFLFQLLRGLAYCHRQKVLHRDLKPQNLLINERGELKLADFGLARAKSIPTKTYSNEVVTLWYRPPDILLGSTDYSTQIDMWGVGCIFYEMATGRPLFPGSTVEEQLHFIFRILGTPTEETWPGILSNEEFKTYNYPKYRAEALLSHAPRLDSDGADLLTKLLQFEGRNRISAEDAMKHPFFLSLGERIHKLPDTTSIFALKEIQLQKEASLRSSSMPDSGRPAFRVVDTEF

PIM1 = PIM1 (Homo sapiens, UniProt P11309); assay: biochemical; conditions: read-out: %Ctrl @ 2000nM
EGFR(L861Q) = EGFR(L861Q) (Homo sapiens, UniProt P00533, L861Q); assay: biochemical; conditions: read-out: %Ctrl @ 2000nM
EGFR(L861Q), sequence (P00533 25-1210 L861Q): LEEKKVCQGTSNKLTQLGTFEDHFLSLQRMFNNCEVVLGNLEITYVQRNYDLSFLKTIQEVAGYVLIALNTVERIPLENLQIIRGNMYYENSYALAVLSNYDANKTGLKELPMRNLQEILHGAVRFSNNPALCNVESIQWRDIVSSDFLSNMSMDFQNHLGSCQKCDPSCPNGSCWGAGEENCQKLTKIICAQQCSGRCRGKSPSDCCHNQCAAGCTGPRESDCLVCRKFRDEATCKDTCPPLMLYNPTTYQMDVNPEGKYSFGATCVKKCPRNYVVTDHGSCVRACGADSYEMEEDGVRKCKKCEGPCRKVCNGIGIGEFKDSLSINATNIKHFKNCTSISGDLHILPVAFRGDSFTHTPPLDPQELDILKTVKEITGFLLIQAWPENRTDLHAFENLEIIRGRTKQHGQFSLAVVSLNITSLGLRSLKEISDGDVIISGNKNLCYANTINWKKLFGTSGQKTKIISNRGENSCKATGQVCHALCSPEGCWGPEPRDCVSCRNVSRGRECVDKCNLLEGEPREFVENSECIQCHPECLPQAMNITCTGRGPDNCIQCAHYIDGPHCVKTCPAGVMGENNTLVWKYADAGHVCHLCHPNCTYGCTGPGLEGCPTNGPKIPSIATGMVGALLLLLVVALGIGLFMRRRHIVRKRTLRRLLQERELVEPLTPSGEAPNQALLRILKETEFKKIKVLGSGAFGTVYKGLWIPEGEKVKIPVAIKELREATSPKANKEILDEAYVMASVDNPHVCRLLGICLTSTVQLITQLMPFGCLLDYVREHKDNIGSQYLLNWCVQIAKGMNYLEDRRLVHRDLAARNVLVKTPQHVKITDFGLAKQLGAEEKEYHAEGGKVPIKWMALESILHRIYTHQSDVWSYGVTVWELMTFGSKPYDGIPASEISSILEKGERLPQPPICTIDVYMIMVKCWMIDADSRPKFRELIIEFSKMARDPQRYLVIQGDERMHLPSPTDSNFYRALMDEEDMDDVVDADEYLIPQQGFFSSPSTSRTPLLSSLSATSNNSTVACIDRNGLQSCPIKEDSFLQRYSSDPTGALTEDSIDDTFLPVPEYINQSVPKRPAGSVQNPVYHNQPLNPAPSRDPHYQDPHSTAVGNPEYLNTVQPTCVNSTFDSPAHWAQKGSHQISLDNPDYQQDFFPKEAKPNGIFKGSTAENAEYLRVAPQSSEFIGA

PIP5K1A = PIP5K1A (Homo sapiens, UniProt Q99755); assay: biochemical; conditions: read-out: %Ctrl @ 2000nM
ALK(C1156Y) = ALK(C1156Y) (Homo sapiens, UniProt Q9UM73, C1156Y); assay: biochemical; conditions: read-out: %Ctrl @ 2000nM
[2] = target: EGFR(L747-S752del, P753S) (Homo sapiens, UniProt P00533, DEL747-752/P753S); assay: biochemical; conditions: read-out: %Ctrl @ 2000nM
EPHA7 = EPHA7 (Homo sapiens, UniProt Q15375); assay: biochemical; conditions: read-out: %Ctrl @ 2000nM
EPHA7, sequence (Q15375 28-998): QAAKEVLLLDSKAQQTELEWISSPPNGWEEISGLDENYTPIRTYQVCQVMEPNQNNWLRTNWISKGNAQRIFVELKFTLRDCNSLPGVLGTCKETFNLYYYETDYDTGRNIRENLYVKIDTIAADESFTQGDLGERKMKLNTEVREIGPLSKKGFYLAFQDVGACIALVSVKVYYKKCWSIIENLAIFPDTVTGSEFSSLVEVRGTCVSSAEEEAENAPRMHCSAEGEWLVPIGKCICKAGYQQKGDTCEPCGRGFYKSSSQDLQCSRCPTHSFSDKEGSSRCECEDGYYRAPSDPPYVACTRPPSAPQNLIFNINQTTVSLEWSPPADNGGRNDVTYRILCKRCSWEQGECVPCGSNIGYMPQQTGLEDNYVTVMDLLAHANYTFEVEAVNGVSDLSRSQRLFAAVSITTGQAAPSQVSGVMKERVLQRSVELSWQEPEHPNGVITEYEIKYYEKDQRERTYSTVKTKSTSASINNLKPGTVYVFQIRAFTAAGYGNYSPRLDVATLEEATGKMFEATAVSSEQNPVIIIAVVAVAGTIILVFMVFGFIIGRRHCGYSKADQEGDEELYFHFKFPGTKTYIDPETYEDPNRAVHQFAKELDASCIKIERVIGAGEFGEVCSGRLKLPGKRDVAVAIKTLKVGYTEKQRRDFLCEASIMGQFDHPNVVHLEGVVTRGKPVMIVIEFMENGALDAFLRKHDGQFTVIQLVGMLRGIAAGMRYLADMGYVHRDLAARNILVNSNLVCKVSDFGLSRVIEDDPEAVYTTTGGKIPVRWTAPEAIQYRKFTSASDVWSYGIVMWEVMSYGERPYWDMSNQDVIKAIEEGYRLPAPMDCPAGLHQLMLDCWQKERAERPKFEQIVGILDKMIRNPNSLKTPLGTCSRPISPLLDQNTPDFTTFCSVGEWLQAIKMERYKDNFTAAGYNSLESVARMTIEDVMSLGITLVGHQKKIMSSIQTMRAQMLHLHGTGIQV

AKT (S129) = conditions: 786-O cells; 48 h
TNIK = TNIK (Homo sapiens, UniProt Q9UKE5); assay: biochemical; conditions: read-out: %Ctrl @ 2000nM
KIT = KIT (Homo sapiens, UniProt P10721); assay: biochemical; conditions: read-out: %Ctrl @ 2000nM
GRK7 = GRK7 (Homo sapiens, UniProt Q8WTQ7); assay: biochemical; conditions: read-out: %Ctrl @ 2000nM
GRK7, sequence (Q8WTQ7 whole entry): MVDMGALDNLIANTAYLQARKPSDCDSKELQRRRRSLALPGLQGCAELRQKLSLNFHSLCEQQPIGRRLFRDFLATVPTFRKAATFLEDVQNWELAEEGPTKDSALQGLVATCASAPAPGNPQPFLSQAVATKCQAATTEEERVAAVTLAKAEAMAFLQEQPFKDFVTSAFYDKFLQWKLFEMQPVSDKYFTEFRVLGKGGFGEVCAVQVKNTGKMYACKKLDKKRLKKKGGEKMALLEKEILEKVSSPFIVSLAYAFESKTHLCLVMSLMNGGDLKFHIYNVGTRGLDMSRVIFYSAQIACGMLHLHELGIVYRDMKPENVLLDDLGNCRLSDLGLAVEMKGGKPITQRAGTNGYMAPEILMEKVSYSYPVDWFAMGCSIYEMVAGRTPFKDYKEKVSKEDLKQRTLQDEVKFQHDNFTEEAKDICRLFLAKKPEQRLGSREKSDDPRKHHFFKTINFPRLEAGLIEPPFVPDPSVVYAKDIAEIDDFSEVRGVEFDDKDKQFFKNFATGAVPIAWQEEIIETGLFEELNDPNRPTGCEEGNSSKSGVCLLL

TLK1 = TLK1 (Homo sapiens, UniProt Q9UKI8); assay: biochemical; conditions: read-out: %Ctrl @ 2000nM
LTK = LTK (Homo sapiens, UniProt P29376); assay: biochemical; conditions: read-out: %Ctrl @ 2000nM
PIK3CA(E542K) = PIK3CA(E542K) (Homo sapiens, UniProt P42336, E542K); assay: biochemical; conditions: read-out: %Ctrl @ 2000nM
PIK3CA(E542K), sequence (P42336 whole entry E542K): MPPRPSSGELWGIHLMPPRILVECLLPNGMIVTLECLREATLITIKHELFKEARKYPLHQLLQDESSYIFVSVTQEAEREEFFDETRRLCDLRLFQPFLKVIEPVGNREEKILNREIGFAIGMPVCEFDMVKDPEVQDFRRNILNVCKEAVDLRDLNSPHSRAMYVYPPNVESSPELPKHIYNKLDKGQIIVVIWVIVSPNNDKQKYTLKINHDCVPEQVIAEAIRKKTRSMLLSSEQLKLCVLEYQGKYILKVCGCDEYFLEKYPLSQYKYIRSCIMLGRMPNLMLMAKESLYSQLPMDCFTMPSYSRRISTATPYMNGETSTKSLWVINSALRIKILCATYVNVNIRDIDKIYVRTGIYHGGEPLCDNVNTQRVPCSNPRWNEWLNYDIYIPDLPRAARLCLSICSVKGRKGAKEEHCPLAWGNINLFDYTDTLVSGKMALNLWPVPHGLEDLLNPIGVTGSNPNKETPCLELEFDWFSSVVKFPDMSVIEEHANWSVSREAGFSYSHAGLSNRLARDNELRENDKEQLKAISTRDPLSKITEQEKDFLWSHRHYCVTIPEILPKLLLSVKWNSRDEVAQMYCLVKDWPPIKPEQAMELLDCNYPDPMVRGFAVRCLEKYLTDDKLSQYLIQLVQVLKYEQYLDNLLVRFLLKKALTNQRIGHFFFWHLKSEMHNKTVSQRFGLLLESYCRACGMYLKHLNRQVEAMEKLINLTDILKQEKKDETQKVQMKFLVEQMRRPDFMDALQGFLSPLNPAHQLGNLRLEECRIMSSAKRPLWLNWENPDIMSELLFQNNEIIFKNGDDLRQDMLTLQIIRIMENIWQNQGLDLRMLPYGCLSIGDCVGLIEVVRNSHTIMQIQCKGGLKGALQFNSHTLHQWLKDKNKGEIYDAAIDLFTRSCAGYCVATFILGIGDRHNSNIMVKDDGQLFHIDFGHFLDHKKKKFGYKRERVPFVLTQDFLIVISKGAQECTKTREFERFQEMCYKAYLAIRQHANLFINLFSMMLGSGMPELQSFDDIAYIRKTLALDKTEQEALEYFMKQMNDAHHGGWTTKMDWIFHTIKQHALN

caspase-3 in 786-O cells = conditions: 72 h, compounds at 20 μM
EPHA2 = EPHA2 (Homo sapiens, UniProt P29317); assay: biochemical; conditions: read-out: %Ctrl @ 2000nM
SGK3 = SGK3 (Homo sapiens, UniProt Q96BR1); assay: biochemical; conditions: read-out: %Ctrl @ 2000nM
[3] = target: RSK1(Kin.Dom.2-C-terminal) (Homo sapiens, UniProt Q15418); assay: biochemical; conditions: read-out: %Ctrl @ 2000nM

ANKK1, sequence (Q8NFD2 whole entry): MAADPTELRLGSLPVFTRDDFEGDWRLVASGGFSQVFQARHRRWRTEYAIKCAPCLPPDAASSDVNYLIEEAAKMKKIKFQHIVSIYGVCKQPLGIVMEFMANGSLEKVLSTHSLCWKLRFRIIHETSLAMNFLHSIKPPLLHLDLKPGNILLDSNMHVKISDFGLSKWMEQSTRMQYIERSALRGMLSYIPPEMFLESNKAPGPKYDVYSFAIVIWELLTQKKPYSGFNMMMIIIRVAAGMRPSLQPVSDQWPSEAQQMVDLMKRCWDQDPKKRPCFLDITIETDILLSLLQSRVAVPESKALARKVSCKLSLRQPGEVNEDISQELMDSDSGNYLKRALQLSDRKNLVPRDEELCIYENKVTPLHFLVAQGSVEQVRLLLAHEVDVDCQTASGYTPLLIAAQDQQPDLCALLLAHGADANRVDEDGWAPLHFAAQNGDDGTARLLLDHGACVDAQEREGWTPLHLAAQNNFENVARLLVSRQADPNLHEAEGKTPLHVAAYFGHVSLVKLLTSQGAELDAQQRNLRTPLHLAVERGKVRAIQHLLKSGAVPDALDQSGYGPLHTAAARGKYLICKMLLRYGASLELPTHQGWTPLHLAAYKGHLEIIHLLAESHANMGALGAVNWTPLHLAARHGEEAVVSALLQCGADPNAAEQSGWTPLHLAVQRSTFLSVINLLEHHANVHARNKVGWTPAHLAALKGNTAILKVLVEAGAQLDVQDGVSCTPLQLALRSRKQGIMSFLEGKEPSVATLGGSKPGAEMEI

In the case of `CC(C)COC(=O)c1[nH]c2ccc(F)cc2c1-c1cn(CC2CCN(CCNS(=O)(=O)c3ccc(CC(C)C)cc3)CC2)nn1` [AB668, isobutyl 5-fluoro-3-(1-((1-(2-((4-isobutylphenyl)sulfonamido)ethyl)piperidin-4-yl)methyl)-1H-1,2,3-triazol-4-yl)-1H-indole-2-carboxylate], the remaining activity at 2 µM (TNNI3K) is reported as 96%, the cytotoxicity (MCF10A cells) is reported as “no cytotoxicity” and the remaining activity at 2 µM [1] is reported as 61%. The remaining activity at 2 µM (ANKK1) was 100%, the remaining activity at 2 µM (CHEK1) was 95% and the remaining activity at 2 µM (FLT3(R834Q)) was 77%. For the same molecule, the remaining activity at 2 µM (HPK1) was 92%, the remaining activity at 2 µM (CSF1R-autoinhibited) was 85% and the remaining activity at 2 µM (FLT1) was 85%. It also gave a remaining activity at 2 µM (MAPKAPK2) of 92%, a remaining activity at 2 µM (EGFR(G719C)) of 83% and a remaining activity at 2 µM (CLK1) of 67%. For the same molecule, the remaining activity at 2 µM (PAK1) was 99%, the remaining activity at 2 µM (AMPK-alpha2) was 100% and the remaining activity at 2 µM (FER) was 100%. For the same molecule, the remaining activity at 2 µM (SRC) was 92%, the remaining activity at 2 µM (PLK2) was 87% and the remaining activity at 2 µM (HIPK3) was 98%. It also gave a remaining activity at 2 µM (CDK8) of 81%, a remaining activity at 2 µM (FES) of 91% and a remaining activity at 2 µM (WNK1) of 100%. For the same molecule, the remaining activity at 2 µM (PRKG2) was 97%, the remaining activity at 2 µM (TNK2) was 100% and the remaining activity at 2 µM (INSRR) was 93%. For the same molecule, the remaining activity at 2 µM (PCTK1) was 94%, the remaining activity at 2 µM (PIM1) was 91% and the remaining activity at 2 µM (EGFR(L861Q)) was 79%. For the same molecule, the remaining activity at 2 µM (PIP5K1A) was 85%, the remaining activity at 2 µM (ALK(C1156Y)) was 81% and the remaining activity at 2 µM [2] was 98%. The remaining activity at 2 µM (EPHA7) was 93%, the “phosphorylation of S129AKT” value (AKT (S129)) was “decreased, in a dose-dependent manner” and the remaining activity at 2 µM (TNIK) was 88%. For the same molecule, the remaining activity at 2 µM (KIT) was 95%, the remaining activity at 2 µM (GRK7) was 97% and the remaining activity at 2 µM (TLK1) was 100%. The remaining activity at 2 µM (LTK) was 94%, the remaining activity at 2 µM (PIK3CA(E542K)) was 99% and the caspase-3 activation (caspase-3 in 786-O cells) was “induced caspase-3 activation”. For the same molecule, the remaining activity at 2 µM (EPHA2) was 92%, the remaining activity at 2 µM (SGK3) was 99% and the remaining activity at 2 µM [3] was 100%.
